Source: patent US20040043937A1, “Peptide and peptide mimetic derivatives with integrin-inhibitors properties II” (priority 2000, published 2004)
Where no end group is shown, it is not given here.

Test system: mouse MC3T3 H1 osteoblast cultures
Experiment: Cell adhesion test: adhesion of osteoblast cultures in vitro to peptide-coated material surfaces
Format: cell-based
Conditions: 50 000 cells/cm^2 inoculated, incubation in serum-free medium at 37° C./95% atmospheric humidity for one hour
Procedure: Example for Cell Adhesion Test The adhesion of mouse MC3T3 H1 osteoblast cultures in vitro to peptide-coated material surfaces was investigated. In this test, 50 000 cells/cm^2 were inoculated and, after incubation in serum-free medium at 37° C./95% atmospheric humidity for one hour, the proportion of adhered cells was determined. Cell adhesion rate [%]=adhered cells/inoculated cells×100 The coating of culture surfaces made of polystyrene precoated with bovine serum albumin (BSA) with thiol peptides is disclosed in the prior art (see DE 198 18098 (Merck Patent GmbH), Ex. 2). The coating of PMMA surfaces with acrylate peptides is also described in DE 198 18098, Ex. 3.

Row | Substance | cell adhesion rate [%] (adhered cells/inoculated cells×100)
1 | Cys-Aca-Aca-Thr-Trp-Tyr-Lys-Ile-Ala ({Cys-Aca-Aca}-TWYKIA) [linear peptide with thiol (Cys) anchor] | 7
2 | Cys-Aca-Aca-Thr-Trp-Tyr-Lys-Ile-Ala-Phe-Gln-Arg ({Cys-Aca-Aca}-TWYKIAFQR) [linear peptide with thiol (Cys) anchor] | 17
3 | Cys-Aca-Aca-Thr-Trp-Tyr-Lys-Ile-Ala-Phe-Gln-Arg-Asn-Arg-Lys ({Cys-Aca-Aca}-TWYKIAFQRNRK) [linear peptide with thiol (Cys) anchor] | 101
4 | Gua-Mab-azaGly-Asp-Hda-εAhx-εAhx-Aca | 75
5 | Lys-Ile-Ala-Phe-Gln-Arg-Asn-Arg-Lys-Aca-Aca-Cys (KIAFQRNRK-{Aca-Aca-Cys}) [linear peptide with thiol (Cys) anchor] | 96
6 | Phe-Gln-Arg-Asn-Arg-Lys-Aca-Aca-Cys (FQRNRK-{Aca-Aca-Cys}) [linear peptide with thiol (Cys) anchor] | 13
7 | Thr-Trp-Tyr-Lys-Ile-Ala-Phe-Gln-Arg-Asn-Arg-Lys-Aca-Aca-Cys (TWYKIAFQRNRK-{Aca-Aca-Cys}) [linear peptide with thiol (Cys) anchor] | 105
